According to patent EP1437117A1, “Use of Sinapic acid and/or its derivatives” (Cognis France S.A., priority 2002, dated 2004):

What was measured:
[1] = tested on: Carrageenan-induzierten Rattenpfotenödem-Modell; details: after injection into the paw; Chawla AS et al 1993; cited from earlier work
[2] = tested on: dermaler Fibroblasten; assay: Collagen synthesis of dermal fibroblasts; type: cell-based
Text: Die menschliche Haut enthält vorwiegend zwei Typen von Collagen: Collagen Typ I und Collagen Typ III, synthetisiert durch dermale Fibroblasten. Beide Collagentypen stellen wesentliche Strukturkomponenten der extrazellulären Matrix des Bindegewebes dar und tragen in hohem Maße zur Struktur der gesamten Haut bei. Ein wichtiges Kennzeichen alternder Haut ist die Abnahme des Collagengehaltes in der Dermis und eine damit verbundene Abnahme der Elastizität, die zusätzlich durch eine Verschlechterung der Fibroblastenfunktion durch nicht enzymatische Glycosylierung (Glycation) und oxidativen Abbau bewirkt wird. Es wurde nun festgestellt, dass Sinapinsäure und ihre Derivate die Collagensynthese dermaler Fibroblasten stimulieren und auf diese Weise die chronologische und die UV-Strahlungsinduzierte Hautalterung verzögert werden kann. Die Verwendung von Sinapinsäure und/oder Sinapinsäurederivaten zur Herstellung kosmetischer und/oder dermopharmazeutischer Zubereitungen zur Stimulation der Collagensynthese in dermalen Fibroblasten ist daher ein weiterer Gegenstand der Erfindung.

[3] = in Ethanol; cited from earlier work
[4] = tested on: Adenosindinukleotide (ADN) der Mitochondrien; assay: Protection of mitochondrial genome against oxidative stress; type: cell-based; details: damage caused by oxidative stress
Text: Sie vermindern die Schädigung des mitochondrialen Genoms, die durch oxidativen Stress bewirkt wird und führen dadurch zu einer Verzögerung der Alterung von Mitochondrien und zu einer Verbesserung des Energiepotentials der Zellen. Somit können Sinapinsäure und ihre Derivate über die Verbesserung der mitochondrialen Funktion und Energiebilanz zum Schutz der Haut gegen Alterung und Faltenbildung, zur Steigerung effektiver Reparaturmechanismen durch Alterung und Sonneneinstrahlung geschädigter Haut und zur verbesserten Wundheilung der Haut entscheidend beitragen.

[5] = type: physicochemical
Text: Vorzugsweise wird jedoch die reine, nicht derivatisierte Sinapinsäure und deren Salze eingesetzt. […] Die entstehenden Abbauprodukte bilden gefärbte übelriechende Substanzen, die auch zu Hautreizungen führen können. Es ist daher ein weiterer Gegenstand der Erfindung Sinapinsäure und/oder ihre Derivate in verkapselter, komplexierter oder adsorbierter Form in den Zubereitungen einzusetzen. Dabei bietet sich insbesondere die Verkapselung in Liposomen oder einer hydrophoben Matrix, die Komplexierung in Cyclodextrinen und die Adsorption an hydrophobe Träger an. Bevorzugt wird Sinapinsäure und/oder ihre Derivate in Mikrokapseln eingearbeitet.

[6] = tested on: Neuropeptiden wie beispielsweise Substanz P oder CGRP; assay: Release of neuropeptides; type: cell-based
Text: Die Haut ist ein Gewebe, das mit einer Vielzahl von Nervenfasern durchzogen ist, deren Zellkörper in den dorsalen Ganglien (dorsal root ganglia - DRG) zusammenführen. Neurone des Typs Aδ und C erreichen mit ihren Zellen die Dermis und auch die Epidermis. Typ C Neurone sind für die Detektion von noziceptiven Stimuli verantwortlich. Keratinocyten und Nervenfasern können eine Vielzahl unterschiedlicher Cytokine produzieren, die unter dem Einfluß externer Stimuli ausgeschieden werden und die sensorischen Enden der Nervenfasern stimulieren. Diese setzen dann wiederum Peptide frei, die die metabolische Aktivität der Keratinocyten über Messenger-Moleküle beeinflussen. Auf diese Weise kommunizieren sensorische Nerven und Keratinocyten kontinuierlich miteinander. Eine Disregulation dieses physiologischen Gleichgewichts erklärt viele pathologische Erscheinungen von empfindlicher Haut oder beispielsweise Psoriasis. Es konnte nun festgestellt werden, dass Sinapinsäure und ihre Derivate insbesondere empfindliche Haut dadurch beruhigen, dass sie die Freisetzung von Neuropeptiden wie beispielsweise Substanz P oder CGRP herabsetzen.

[7] = tested on: zellulärer DNA; assay: UV-induced thymine dimer formation in cellular DNA; type: cell-based; details: induced by UV radiation; topical application
Text: Es konnte festgestellt werden, dass durch die topische Anwendung von Sinapinsäure und ihren Derivaten insbesondere die Bildung von Thymin-Dimeren in zellulärer DNA, die durch UV-Strahlung induziert wird, vermindert wird. Dadurch kann die Anzahl der Mutationen gesenkt und eine Stärkung des dermalen Immunsystems bewirkt werden. Ein weiterer Gegenstand der Erfindung ist daher die Verwendung von Sinapinsäure und/oder Sinapinsäurederivaten zur Herstellung von kosmetischen und/oder dermopharmazeutischen Zubereitungen zum Schutz vor Thymin-Dimerbildung nach Einfluß von UV-Strahlung in Hautzellen und zur Verbesserung des DNA-Reparaturmechanismus in Hautzellen.

COc1cc(/C=C/C(=O)O)cc(OC)c1O [Sinapinsäure, 4-Hydroxy-3,5-Dimethoxy-Zimtsäure]
anti-inflammatorische Wirkung [1]: anti-inflammatorische Wirkung | Collagensynthese dermaler Fibroblasten [2]: stimulieren | UV-Absorptionsmaximum [3]: 323 nm | Wirkung auf Adenosindinukleotide (ADN) der Mitochondrien [4]: schützende Wirkung | chemische Stabilität [5]: leicht zersetzt | Freisetzung von Neuropeptiden wie beispielsweise Substanz P oder CGRP [6]: herabsetzen | Bildung von Thymin-Dimeren in zellulärer DNA [7]: vermindert
